In the supplement of paper PMC10627819:

Legend:
[1] = test system: S. pneumoniae D39V; test: fitness (endpoint OD595 vs no drug) (fraction); higher = more growth
How it was run: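 In 384-well plates at 37 °C, cultures began at OD595 0.01 in 30 µl, with 55 µl used for S. pneumoniae. OD595 readings every 30 min for 14 h were corrected by the first reading. Fitness divides the stationary-phase transition optical density by the robust mean of no-drug control wells. The result is capped at 1.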

[2] = test system: S. pneumoniae D39V; test: Bliss interaction score (quartile over a dose matrix) (fitness difference); higher = more antagonism (negative = synergy)
How it was run: (§1)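 The Bliss score is observed minus expected fitness under the product model, reported as quartiles over technical, biological and donor/recipient replicates. Fitness is the OD595 at entry into stationary phase divided by the plate's robust no-drug mean and capped at 1. Single-drug fitness was inferred from combination data.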

[3] = test system: B. subtilis 168; test: as above
How it was run: as §1

[4] = test system: S. aureus DSM 20231; test: as above
How it was run: as §1

[5] = test system: S. aureus Newman; test: as above
How it was run: as §1
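Wherever Bliss interaction score (quartile over a dose matrix) is given: first quartile when negative (synergy) and third quartile when positive (antagonism).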

CO/N=C(\C(=O)N[C@@H]1C(=O)N2C(C(=O)O)=C(COC(C)=O)CS[C@H]12)c1csc(N)n1 [Cefotaxime] + CO[C@H]1/C=C/O[C@@]2(C)Oc3c(C)c(O)c4c(O)c(c(/C=N/N5CCN(C)CC5)c(O)c4c3C2=O)NC(=O)/C(C)=C\C=C\[C@H](C)[C@H](O)[C@@H](C)[C@@H](O)[C@@H](C)[C@H](OC(C)=O)[C@@H]1C [Rifampicin]
fitness, [1]
Conditions	first compound 0.0018 µg/mL	first compound 0.0035 µg/mL	first compound 0.007 µg/mL
partner 0.025 µg/mL	0.96	0.964	0.798
partner 0.1 µg/mL	–	–	0.159

[1], partner 0.2 µg/mL, one replicate
Conditions	fitness
first compound 0.0018 µg/mL	0
first compound 0.0035 µg/mL	0
first compound 0.007 µg/mL	0

Conditions	Bliss interaction score
[2]	-0.0838
[3]	0.0961
[4]	0.0866
[5]	0.0597

CO/N=C(\C(=O)N[C@@H]1C(=O)N2C(C(=O)O)=C(COC(C)=O)CS[C@H]12)c1csc(N)n1 [Cefotaxime] + C[C@@H](O)[C@H]1C(=O)N2C(C(=O)O)=C(SCCNC=N)C[C@H]12 [Imipenem]
fitness, [1]
Conditions	partner 0.005 µg/mL	partner 0.0065 µg/mL	partner 0.01 µg/mL	partner 0.013 µg/mL	partner 0.02 µg/mL	partner 0.026 µg/mL
first compound 0.0018 µg/mL	0.966	0.976	0.937	≥ 1	0.932	0.973
first compound 0.0035 µg/mL	0.942	0.99	0.941	≥ 1	0.947	0.942
first compound 0.007 µg/mL	0.934	0.634	0.882	0.708	0.87	0.548

Conditions	Bliss interaction score
[2]	0.0762
[3]	-0.116
[4]	-0.0289
[5]	0.0648

CO/N=C(\C(=O)N[C@@H]1C(=O)N2C(C(=O)O)=C(COC(C)=O)CS[C@H]12)c1csc(N)n1 [Cefotaxime] + Clc1ccc(COC(Cn2ccnc2)c2ccc(Cl)cc2Cl)c(Cl)c1 [Miconazole]
fitness, [1]
Conditions	partner 1.073 µg/mL	partner 1.25 µg/mL	partner 2.145 µg/mL	partner 2.5 µg/mL	partner 4.29 µg/mL	partner 5 µg/mL
first compound 0.0018 µg/mL	≥ 1	0.919	0.967	0.96	0.94	0.936
first compound 0.0035 µg/mL	≥ 1	0.866	0.907	0.9	0.866	0.911
first compound 0.007 µg/mL	0.797	0.749	–	0.789	0.613	0.796

Conditions	Bliss interaction score
[2]	-0.0628
[3]	0.104
[4]	-0.0534
[5]	0.0393

CO/N=C(\C(=O)N[C@@H]1C(=O)N2C(C(=O)O)=C(COC(C)=O)CS[C@H]12)c1csc(N)n1 [Cefotaxime] + O=C1CN(/N=C/c2ccc([N+](=O)[O-])o2)C(=O)N1 [Nitrofurantoin]
fitness, [1]
Conditions	partner 1.285 µg/mL	partner 2 µg/mL	partner 2.57 µg/mL	partner 4 µg/mL	partner 8 µg/mL
first compound 0.0018 µg/mL	0.974	0.94	0.959	0.944	0.873
first compound 0.0035 µg/mL	0.963	0.92	0.965	0.916	0.822
first compound 0.007 µg/mL	0.923	0.844	0.923	0.821	0.733

[1], partner 5.14 µg/mL, one replicate
Conditions	fitness
first compound 0.0018 µg/mL	0.981
first compound 0.0035 µg/mL	0.945
first compound 0.007 µg/mL	0.894

Conditions	Bliss interaction score
[2]	0.142
[3]	-0.157
[4]	0.0224
[5]	0.0592

O=C(O)c1cn(C2CC2)c2cc(N3CCNCC3)c(F)cc2c1=O [Ciprofloxacin] + CC[C@H]1OC(=O)[C@H](C)[C@@H](O[C@H]2C[C@@](C)(OC)[C@@H](O)[C@H](C)O2)[C@H](C)[C@@H](O[C@@H]2O[C@H](C)C[C@H](N(C)C)[C@H]2O)[C@](C)(OC)C[C@@H](C)C(=O)[C@H](C)[C@@H](O)[C@]1(C)O [Clarithromycin]
fitness, [1], one replicate
Conditions	partner 0.007812 µg/mL	partner 0.01562 µg/mL	partner 0.03125 µg/mL	partner 0.0625 µg/mL	partner 0.125 µg/mL	partner 0.25 µg/mL
first compound 0.125 µg/mL	0.839	0.844	0.627	–	–	–
first compound 0.25 µg/mL	0.742	0.746	0.536	0.349	0.17	0.0141
first compound 0.5 µg/mL	0.472	0.524	0.398	–	–	–

fitness, [1]
Conditions	partner 0.0625 µg/mL	partner 0.07 µg/mL	partner 0.125 µg/mL	partner 0.14 µg/mL	partner 0.25 µg/mL	partner 0.28 µg/mL
first compound 0.125 µg/mL	0.473	0.151	0.246	0.0833	0.0576	0.0594
first compound 0.25 µg/mL	–	0.166	–	0.0864	–	0.0284
first compound 0.5 µg/mL	0.374	0.127	0.191	0.0639	0.0761	0.0531

Conditions	Bliss interaction score
[2]	-0.0773
[3]	0.183
[4]	0.0952
[5]	0.0708

O=C(O)c1cn(C2CC2)c2cc(N3CCNCC3)c(F)cc2c1=O [Ciprofloxacin] + CO[C@H]1/C=C/O[C@@]2(C)Oc3c(C)c(O)c4c(O)c(c(/C=N/N5CCN(C)CC5)c(O)c4c3C2=O)NC(=O)/C(C)=C\C=C\[C@H](C)[C@H](O)[C@@H](C)[C@@H](O)[C@@H](C)[C@H](OC(C)=O)[C@@H]1C [Rifampicin]
fitness, [1]
Conditions	first compound 0.125 µg/mL	first compound 0.25 µg/mL	first compound 0.5 µg/mL
partner 0.025 µg/mL	0.954	0.84	0.795
partner 0.05 µg/mL	–	–	0.688

[1], partner 0.2 µg/mL, one replicate
Conditions	fitness
first compound 0.125 µg/mL	0
first compound 0.25 µg/mL	0
first compound 0.5 µg/mL	0

Conditions	Bliss interaction score
[2]	0.0532
[3]	0.162
[4]	-0.0712
[5]	0.0614

O=C(O)c1cn(C2CC2)c2cc(N3CCNCC3)c(F)cc2c1=O [Ciprofloxacin] + C[C@@H](O)[C@H]1C(=O)N2C(C(=O)O)=C(SCCNC=N)C[C@H]12 [Imipenem]
fitness, [1]
Conditions	partner 0.005 µg/mL	partner 0.0065 µg/mL	partner 0.01 µg/mL	partner 0.013 µg/mL	partner 0.02 µg/mL	partner 0.026 µg/mL
first compound 0.125 µg/mL	0.956	0.96	0.959	0.893	0.933	0.837
first compound 0.25 µg/mL	–	0.878	–	0.847	–	0.774
first compound 0.5 µg/mL	–	0.531	–	0.583	–	0.529

[1], first compound 0.25 µg/mL, one replicate
Conditions	fitness
partner 0.005 µg/mL	0.835
partner 0.01 µg/mL	0.824
partner 0.02 µg/mL	0.881

Conditions	Bliss interaction score
[2]	0.0446
[3]	-0.149
[4]	0.0301
[5]	0.016
